Tested on: 379773-124-R-J2-PDC spheroid viability
Test: Anticancer human tumor 379773-124-R-J2-PDC patient-derived endometrial carcinoma cell line growth inhibition [POLQ]
Details: spheroids with HUVEC and MSC; for IC50: curve of first compound; for viability, T/C: stronger effect = lower value
In short: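 Complex spheroid viability model combining PDC tumour cells with endothelial (HUVEC) and MSC stromal cells. Novobiocin, ART-558 or RP6685 were tested singly and in combination with standard and investigational anticancer drugs. Each was titrated in half-log steps from near clinical Cmax, or from 10 microM where Cmax was unknown.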

[1] = second compound 0.0316 µM, first compound 0.0316 µM
[2] = second compound 0.0316 µM, first compound 0.1 µM
[3] = second compound 0.0316 µM, first compound 0.316 µM
[4] = second compound 0.0316 µM, first compound 1 µM
[5] = second compound 0.0316 µM, first compound 3.16 µM
[6] = second compound 0.0316 µM, first compound 10 µM
[7] = second compound 0.1 µM, first compound 0.0316 µM
[8] = second compound 0.1 µM, first compound 0.1 µM
[9] = second compound 0.1 µM, first compound 0.316 µM
[10] = second compound 0.1 µM, first compound 1 µM
[11] = second compound 0.1 µM, first compound 3.16 µM
[12] = second compound 0.1 µM, first compound 10 µM
[13] = second compound 0.316 µM, first compound 0.0316 µM
[14] = second compound 0.316 µM, first compound 0.1 µM
[15] = second compound 0.316 µM, first compound 0.316 µM
[16] = second compound 0.316 µM, first compound 1 µM
[17] = second compound 0.316 µM, first compound 3.16 µM
[18] = second compound 0.316 µM, first compound 10 µM
[19] = second compound 1 µM, first compound 0.0316 µM
[20] = second compound 1 µM, first compound 0.1 µM
[21] = second compound 1 µM, first compound 0.316 µM
[22] = second compound 1 µM, first compound 1 µM
[23] = second compound 1 µM, first compound 3.16 µM
[24] = second compound 1 µM, first compound 10 µM
[25] = second compound 3.16 µM, first compound 0.0316 µM
[26] = second compound 3.16 µM, first compound 0.1 µM
[27] = second compound 3.16 µM, first compound 0.316 µM
[28] = second compound 3.16 µM, first compound 1 µM
[29] = second compound 3.16 µM, first compound 3.16 µM
[30] = second compound 3.16 µM, first compound 10 µM
[31] = second compound 10 µM, first compound 0.0316 µM
[32] = second compound 10 µM, first compound 0.1 µM
[33] = second compound 10 µM, first compound 0.316 µM
[34] = second compound 10 µM, first compound 1 µM
[35] = second compound 10 µM, first compound 3.16 µM
[36] = second compound 10 µM, first compound 10 µM
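Note: spheroids exposed to drugs for seven days before readout.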
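Throughout, for viability, T/C: percent viability relative to DMSO vehicle control taken as 100%.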

## CC1COCCN1c1cc(C2(O)CC3CCC(C2)O3)c2cnn(-c3ccn[nH]3)c2n1 (stereo not drawn) + COC1C(OC(N)=O)C(O)C(Oc2ccc3c(O)c(NC(=O)c4ccc(O)c(CC=C(C)C)c4)c(=O)oc3c2C)OC1(C)C
Second compound 0.0316 µM
  IC50: 66.1 nM
Second compound 0.1 µM
  IC50: 99.4 nM
Second compound 0.316 µM
  IC50: 103 nM
Second compound 1 µM
  IC50: 75.8 nM
Second compound 3.16 µM
  IC50: 86.8 nM
Second compound 10 µM
  IC50: 76.5 nM
[1]
  viability, T/C: 74.8%
[2]
  viability, T/C: 36.6%
[3]
  viability, T/C: 14.5%
[4]
  viability, T/C: 10.8%
[5]
  viability, T/C: 7.52%
[6]
  viability, T/C: 2.19%
[7]
  viability, T/C: 82.9%
[8]
  viability, T/C: 49.9%
[9]
  viability, T/C: 11.2%
[10]
  viability, T/C: 8.68%
[11]
  viability, T/C: 7.3%
[12]
  viability, T/C: 2.55%
[13]
  viability, T/C: 90%
[14]
  viability, T/C: 51.2%
[15]
  viability, T/C: 12.9%
[16]
  viability, T/C: 10.9%
[17]
  viability, T/C: 6.18%
[18]
  viability, T/C: 2.42%
[19]
  viability, T/C: 77.8%
[20]
  viability, T/C: 41.4%
[21]
  viability, T/C: 11.6%
[22]
  viability, T/C: 10.2%
[23]
  viability, T/C: 6.65%
[24]
  viability, T/C: 1.98%
[25]
  viability, T/C: 71.9%
[26]
  viability, T/C: 47%
[27]
  viability, T/C: 11.7%
[28]
  viability, T/C: 9.21%
[29]
  viability, T/C: 7.19%
[30]
  viability, T/C: 2.23%
[31]
  viability, T/C: 75.4%
[32]
  viability, T/C: 42.4%
[33]
  viability, T/C: 10.3%
[34]
  viability, T/C: 9.86%
[35]
  viability, T/C: 7.38%
[36]
  viability, T/C: 2.73%

## CC(=O)O[C@H]1C(=O)[C@@]2(C)[C@H]([C@H](OC(=O)c3ccccc3)[C@]3(O)C[C@H](OC(=O)[C@H](O)[C@@H](NC(=O)c4ccccc4)c4ccccc4)C(C)=C1C3(C)C)[C@]1(OC(C)=O)CO[C@@H]1C[C@@H]2O + Cc1cccc(N(C)C(=O)C2C(O)CCN2c2nc(C)cc(C(F)(F)F)c2C#N)c1
Second compound 0.0316 µM
  IC50: < 9.49 nM
Second compound 0.1 µM
  IC50: < 9.49 nM
Second compound 0.316 µM
  IC50: < 9.49 nM
Second compound 1 µM
  IC50: < 9.49 nM
Second compound 3.16 µM
  IC50: < 9.49 nM
Second compound 10 µM
  IC50: < 9.49 nM
Second compound 0.0316 µM, first compound 0.00949 µM
  viability, T/C: 24.4%
Second compound 0.0316 µM, first compound 0.03 µM
  viability, T/C: 11.6%
Second compound 0.0316 µM, first compound 0.0949 µM
  viability, T/C: 7.9%
Second compound 0.0316 µM, first compound 0.3 µM
  viability, T/C: 12.8%
Second compound 0.0316 µM, first compound 0.949 µM
  viability, T/C: 13.3%
Second compound 0.0316 µM, first compound 3 µM
  viability, T/C: 10.6%
Second compound 0.1 µM, first compound 0.00949 µM
  viability, T/C: 25.5%
Second compound 0.1 µM, first compound 0.03 µM
  viability, T/C: 8.1%
Second compound 0.1 µM, first compound 0.0949 µM
  viability, T/C: 9.59%
Second compound 0.1 µM, first compound 0.3 µM
  viability, T/C: 9.63%
Second compound 0.1 µM, first compound 0.949 µM
  viability, T/C: 10.5%
Second compound 0.1 µM, first compound 3 µM
  viability, T/C: 7.41%
Second compound 0.316 µM, first compound 0.00949 µM
  viability, T/C: 27.3%
Second compound 0.316 µM, first compound 0.03 µM
  viability, T/C: 9.48%
Second compound 0.316 µM, first compound 0.0949 µM
  viability, T/C: 11.7%
Second compound 0.316 µM, first compound 0.3 µM
  viability, T/C: 9.83%
Second compound 0.316 µM, first compound 0.949 µM
  viability, T/C: 10.2%
Second compound 0.316 µM, first compound 3 µM
  viability, T/C: 9.11%
Second compound 1 µM, first compound 0.00949 µM
  viability, T/C: 23.7%
Second compound 1 µM, first compound 0.03 µM
  viability, T/C: 13.9%
Second compound 1 µM, first compound 0.0949 µM
  viability, T/C: 11.9%
Second compound 1 µM, first compound 0.3 µM
  viability, T/C: 10.7%
Second compound 1 µM, first compound 0.949 µM
  viability, T/C: 10.9%
Second compound 1 µM, first compound 3 µM
  viability, T/C: 7.53%
Second compound 3.16 µM, first compound 0.00949 µM
  viability, T/C: 15.8%
Second compound 3.16 µM, first compound 0.03 µM
  viability, T/C: 8.23%
Second compound 3.16 µM, first compound 0.0949 µM
  viability, T/C: 10.8%
Second compound 3.16 µM, first compound 0.3 µM
  viability, T/C: 11.8%
Second compound 3.16 µM, first compound 0.949 µM
  viability, T/C: 10.8%
Second compound 3.16 µM, first compound 3 µM
  viability, T/C: 12%
Second compound 10 µM, first compound 0.00949 µM
  viability, T/C: 16.4%
Second compound 10 µM, first compound 0.03 µM
  viability, T/C: 10.1%
Second compound 10 µM, first compound 0.0949 µM
  viability, T/C: 9.57%
Second compound 10 µM, first compound 0.3 µM
  viability, T/C: 10.7%
Second compound 10 µM, first compound 0.949 µM
  viability, T/C: 10.5%
Second compound 10 µM, first compound 3 µM
  viability, T/C: 7.56%

## COc1cc(C2c3cc4c(cc3C(OC3OC5COC(C)OC5C(O)C3O)C3COC(=O)C23)OCO4)cc(OC)c1O (stereo not drawn) + Cc1cccc(N(C)C(=O)C2C(O)CCN2c2nc(C)cc(C(F)(F)F)c2C#N)c1
Second compound 0.0316 µM
  IC50: 1190 nM
Second compound 0.1 µM
  IC50: 1230 nM
Second compound 0.316 µM
  IC50: 914 nM
Second compound 1 µM
  IC50: 1190 nM
Second compound 3.16 µM
  IC50: 1040 nM
Second compound 10 µM
  IC50: 577 nM
[1]
  viability, T/C: 91.2%
[2]
  viability, T/C: 71.9%
[3]
  viability, T/C: 82.6%
[4]
  viability, T/C: 56.5%
[5]
  viability, T/C: 12.7%
[6]
  viability, T/C: 8.66%
[7]
  viability, T/C: 82.8%
[8]
  viability, T/C: 83.6%
[9]
  viability, T/C: 83.8%
[10]
  viability, T/C: 58%
[11]
  viability, T/C: 12.7%
[12]
  viability, T/C: 9.6%
[13]
  viability, T/C: 86%
[14]
  viability, T/C: 82%
[15]
  viability, T/C: 68.4%
[16]
  viability, T/C: 52.9%
[17]
  viability, T/C: 12%
[18]
  viability, T/C: 9.6%
[19]
  viability, T/C: 74.4%
[20]
  viability, T/C: 84.9%
[21]
  viability, T/C: 71.1%
[22]
  viability, T/C: 57.1%
[23]
  viability, T/C: 9.91%
[24]
  viability, T/C: 11.1%
[25]
  viability, T/C: 73.3%
[26]
  viability, T/C: 80.9%
[27]
  viability, T/C: 77.9%
[28]
  viability, T/C: 51.4%
[29]
  viability, T/C: 11%
[30]
  viability, T/C: 13.6%
[31]
  viability, T/C: 77.6%
[32]
  viability, T/C: 75%
[33]
  viability, T/C: 66.1%
[34]
  viability, T/C: 35.5%
[35]
  viability, T/C: 11.9%
[36]
  viability, T/C: 11.2%

## COc1cccc2c1C(=O)c1c(O)c3c(c(O)c1C2=O)CC(O)(C(=O)CO)CC3OC1CC(N)C(O)C(C)O1 (stereo not drawn) + Cc1cccc(N(C)C(=O)C2C(O)CCN2c2nc(C)cc(C(F)(F)F)c2C#N)c1
Second compound 0.0316 µM
  IC50: 58.5 nM
Second compound 0.1 µM
  IC50: 63.5 nM
Second compound 0.316 µM
  IC50: 52 nM
Second compound 1 µM
  IC50: 54.1 nM
Second compound 3.16 µM
  IC50: 48.3 nM
Second compound 10 µM
  IC50: < 31.6 nM
[1]
  viability, T/C: 80.6%
[2]
  viability, T/C: 22%
[3]
  viability, T/C: 9.56%
[4]
  viability, T/C: 6.15%
[5]
  viability, T/C: 0.89%
[6]
  viability, T/C: 0.14%
[7]
  viability, T/C: 82.8%
[8]
  viability, T/C: 28.3%
[9]
  viability, T/C: 9.45%
[10]
  viability, T/C: 5.6%
[11]
  viability, T/C: 1.37%
[12]
  viability, T/C: 0.84%
[13]
  viability, T/C: 70.5%
[14]
  viability, T/C: 23.1%
[15]
  viability, T/C: 7.91%
[16]
  viability, T/C: 6.47%
[17]
  viability, T/C: 2%
[18]
  viability, T/C: 1.9%
[19]
  viability, T/C: 74.8%
[20]
  viability, T/C: 20.8%
[21]
  viability, T/C: 9.58%
[22]
  viability, T/C: 5.67%
[23]
  viability, T/C: 0.65%
[24]
  viability, T/C: 1.38%
[25]
  viability, T/C: 69.5%
[26]
  viability, T/C: 15.7%
[27]
  viability, T/C: 7.22%
[28]
  viability, T/C: 7.14%
[29]
  viability, T/C: 1.2%
[30]
  viability, T/C: 0.28%
[31]
  viability, T/C: 48.5%
[32]
  viability, T/C: 12%
[33]
  viability, T/C: 9.32%
[34]
  viability, T/C: 4.59%
[35]
  viability, T/C: 0.51%
[36]
  viability, T/C: 0.38%

Reference: PubChem BioAssay AID1963848 (Molecular Pharmacology Branch, DTP, NCI, 2024)
